pIC50: −log10 of the molar value. Where two headings read alike, the source gives them in different places. Each block holds one compound with its values, some of them ahead of it.
Assays:
[1] = type: in vivo, male Sprague-Dawley rats; settings: rats
[2] = cited from earlier work
UGT1A3 = settings: ref 14; cited from earlier work
plasma proteins = settings: cited from earlier work
human UGT1A9 = settings: ref 14; cited from earlier work
[3] = oral intake in human; cited from earlier work
human UGT1A1 = settings: ref 14; cited from earlier work
MRP2 = settings: read-out: IC50, MRP2; cited from earlier work
[4] = markedly low water solubility and high permeability; cited from earlier work
[5] = cited from earlier work; remark: listed apart in the source
BCRP = settings: read-out: IC50, BCRP; cited from earlier work
CYP2C19 = settings: in vitro; cited from earlier work
P-gp = settings: read-out: IC50, P-gp; cited from earlier work
[6] = after multiple doses of telmisartan vs donafenib alone
[7] = after multiple doses of telmisartan vs sorafenib alone
[8] = oral sorafenib in humans, mass balance
[9] = after multiple doses of donafenib vs telmisartan alone

decrease in t1/2 of donafenib [1, 6]: 35.0%
increase in CLz/F of donafenib [1, 6]: 87.5%
SMILES: [2H]C([2H])([2H])NC(=O)c1cc(Oc2ccc(NC(=O)Nc3ccc(Cl)c(C(F)(F)F)c3)cc2)ccn1 [Donafenib]
N-oxidation (M2), % of total drug ([2]; ref 41): 24.76%
glucuronidation (M7), % of total drug ([2]; ref 41): 4.82%

decrease in CLz/F of sorafenib [1, 7]: 46.0%
decrease in Vz/F of sorafenib [1, 7]: 50.4%
increase in AUC0-t of sorafenib [1, 7]: 77.7%
increase in AUC0-∞ of sorafenib [1, 7]: 75.8%
increase in Cmax of sorafenib [1, 7]: 60.9%
SMILES: CNC(=O)c1cc(Oc2ccc(NC(=O)Nc3ccc(Cl)c(C(F)(F)F)c3)cc2)ccn1 [Sorafenib]
inhibitory effects on UGT1A3 (UGT1A3): no inhibitory effects
binding to plasma proteins (plasma proteins; sorafenib, human): more than 99%
inhibition of human UGT1A9 (human UGT1A9): potent inhibitor
time to maximum plasma concentration [3]: about 3 hours
inhibition of human UGT1A1 (human UGT1A1): potent inhibitor
drug eliminated as oxidative metabolites [2, 8]: less than 5%
drug eliminated as sorafenib-β-D-glucuronide (SG) [2, 8]: 15%

decrease in CLz/F of telmisartan [1, 9]: 57.3%
decrease in Vz/F of telmisartan [1, 9]: 45.6%
increase in AUC0-∞ of telmisartan [1, 9]: 0.98 fold
effect of sorafenib on the pharmacokinetic parameters of telmisartan ([1]; multiple doses of sorafenib vs telmisartan alone): does not significantly affect
SMILES: CCCc1nc2c(C)cc(-c3nc4ccccc4n3C)cc2n1Cc1ccc(-c2ccccc2C(=O)O)cc1 [Telmisartan]
binding to plasma proteins (plasma proteins; telmisartan): 99.5%
pIC50 (MRP2): 4.42
BCS class [4]: class II
proportion metabolized to acyl-glucuronides by UGT1A3 ([5]; ref 25,27): 11%
half-life for elimination ([5]; ref 26): about 24 hours
proportion metabolized to acyl-glucuronides by UGT1A3 ([5]; ref 34): 11%
pIC50 (BCRP): 5.17
inhibition of CYP2C19 (CYP2C19): minor inhibition
pIC50 (P-gp): 4.91

Source: article PMC12277590 (Drug Design, Development and Therapy, 2025)
